Square brackets hold non-standard residues; d marks the D form. Ends that are not written are not given here. pY = N[C@@H](Cc1ccc(OP(=O)(O)O)cc1)C(=O)O
Legend:
p110β/p85β complexes = test: Transcreener ADP formation, soluble monomeric diC8-PIP2 substrate; type: biochemical, mouse; details: p110β/p85-niSH2 and p110β/p85-icSH2 complexes
Experimental: (§1) Figure 1 Inhibition of p110β by p85-Type Regulatory Subunits and Activation of the Complexes by RTK Phosphopeptide (A) Domain organization of p110β and the regulatory subunits p85α, p85β, and p55γ. The color scheme for the domains is used for all figures, unless otherwise stated. […] The inhibition is released upon addition of the 10 μM PDGFR pY2. […] The y axis is expressed as a change in fluorescence polarization (ΔmP), which is obtained by subtracting the observed polarization for the construct at a given enzyme concentration from the maximum fluorescence polarization for that construct. […]
The lipid kinase activity was determined using the Transcreener ADP2 FP Assay (BellBrook Labs, Madison, WI) according to manufacturer‟s specifications. This non-radioactive assay measures activity by quantitating the amount of ADP formed. The ADP formed by PI3K competes with fluorescent ADP tracer for binding to an anti-ADP antibody, thereby decreasing fluorescence polarization. Because of the competitive nature of this assay, the change in fluorescence polarization signal is not a linear function of enzyme activity, and a convenient measure of enzyme activity is the EC50, or the concentration of enzyme necessary to give half-maximal inhibition of labeled ADP binding to the antibody, for a given concentration of substrate and a fixed time of reaction at initial rate. […]

p110β/p85β-nic = test: ATPase activity (ADP formation) in the absence of lipid substrate, Transcreener; type: biochemical, mouse; details: p110β/p85-niSH2 and p110β/p85-icSH2 complexes; absence of lipid substrate
Experimental: as §1, with “construct. The plateau in these assays arises due to the competitive nature of the ADP detection system, based on displacement of ADP-Alexa 633 tracer from the ADP^2-antibody by ADP generated during the PI3K assay (see Supplemental Experimental Procedures). All measurements were done in triplicates, and the error bars indicate the standard error of the mean (SEM).” for “construct.”
The lipid kinase activity was determined using the Transcreener ADP2 FP Assay (BellBrook Labs, Madison, WI) according to manufacturer‟s specifications. This non-radioactive assay measures activity by quantitating the amount of ADP formed. The ADP formed by PI3K competes with fluorescent ADP tracer for binding to an anti-ADP antibody, thereby decreasing fluorescence polarization. […]

ATPase activity in the presence of pY2 (p110β/p85β-nic): enhanced
Substance: ESDGG[pY]MDMSKDESID[pY]VPMLDMKGDIKYADIE [pY2, bis-phosphopeptide (PDGFR 735–767, with pY740 and pY751)]
activity with soluble lipid substrate in the presence of pY2 (p110β/p85β complexes): enhanced

— article PMC3670040, “Structure of Lipid Kinase p110β/p85β Elucidates an Unusual SH2-Domain-Mediated Inhibitory Mechanism” (Molecular Cell, 2011)
